Key:
[1] = The drug is tested on Collinsella intestinalis strain: DSM13280 for biotransformation. The drug concentrations were measured before and after a 12-h incubation by liquid-chromatography-coupled mass spectrometry (LC–MS); details: 2 µM
[2] = The drug is tested on Bacteroides caccae strain: ATCC43185 for biotransformation. The drug concentrations were measured before and after a 12-h incubation by liquid-chromatography-coupled mass spectrometry (LC–MS); details: 2 µM
[3] = The drug is tested on Bacteroides coprophilus strain: DSM18228 for biotransformation. The drug concentrations were measured before and after a 12-h incubation by liquid-chromatography-coupled mass spectrometry (LC–MS); details: 2 µM
[4] = The drug is tested on Bacteroides fragilis strain: ATCC43859 for biotransformation. The drug concentrations were measured before and after a 12-h incubation by liquid-chromatography-coupled mass spectrometry (LC–MS); details: 2 µM
[5] = The drug is tested on Parabacteroides merdae strain: ATCC43184 for biotransformation. The drug concentrations were measured before and after a 12-h incubation by liquid-chromatography-coupled mass spectrometry (LC–MS); details: 2 µM
[6] = The drug is tested on Blautia luti strain: DSM14534 for biotransformation. The drug concentrations were measured before and after a 12-h incubation by liquid-chromatography-coupled mass spectrometry (LC–MS); format: ADME; parameters: dose 2 uM, timepoint 0 vs 12 hours; details: 2 µM
[7] = The drug is tested on Clostridium ramosum strain: DSM1402 for biotransformation. The drug concentrations were measured before and after a 12-h incubation by liquid-chromatography-coupled mass spectrometry (LC–MS); details: thomasclavelia ramosa, 2 µM
[8] = The drug is tested on Clostridium scindens strain: ATCC35704 for biotransformation. The drug concentrations were measured before and after a 12-h incubation by liquid-chromatography-coupled mass spectrometry (LC–MS); details: 2 µM
[9] = The drug is tested on Clostridium sporogenes strain: ATCC15579 for biotransformation. The drug concentrations were measured before and after a 12-h incubation by liquid-chromatography-coupled mass spectrometry (LC–MS); details: 2 µM
[10] = The drug is tested on Enterococcus faecalis strain: V583 for biotransformation. The drug concentrations were measured before and after a 12-h incubation by liquid-chromatography-coupled mass spectrometry (LC–MS); details: 2 µM
[11] = The drug is tested on Providencia rettgeri strain: DSM1131 for biotransformation. The drug concentrations were measured before and after a 12-h incubation by liquid-chromatography-coupled mass spectrometry (LC–MS); format: ADME; parameters: dose 2 uM, timepoint 0 vs 12 hours; details: 2 µM
[12] = bifidobacterium adolescentis, 12 h, 2 µM
Description: The drug is tested on Bifidobacterium adolescentis strain: ATCC 15703 for biotransformation. The drug concentrations were measured before and after a 12-h incubation by liquid-chromatography-coupled mass spectrometry (LC–MS)

[13] = bacteroides eggerthii, 12 h, 2 µM
Description: The drug is tested on Bacteroides eggerthii strain: DSM20697 for biotransformation. The drug concentrations were measured before and after a 12-h incubation by liquid-chromatography-coupled mass spectrometry (LC–MS)

[14] = bacteroides intestinalis, 12 h, 2 µM
Description: The drug is tested on Bacteroides intestinalis strain: DSM17393 for biotransformation. The drug concentrations were measured before and after a 12-h incubation by liquid-chromatography-coupled mass spectrometry (LC–MS)

[15] = bacteroides thetaiotaomicron, 12 h, 2 µM
Description: The drug is tested on Bacteroides thetaiotaomicron strain: VPI-5482 for biotransformation. The drug concentrations were measured before and after a 12-h incubation by liquid-chromatography-coupled mass spectrometry (LC–MS)

[16] = bacteroides thetaiotaomicron, 12 h, 2 µM; remark: listed apart in the source
Description: The drug is tested on Bacteroides thetaiotaomicron strain: 3731 for biotransformation. The drug concentrations were measured before and after a 12-h incubation by liquid-chromatography-coupled mass spectrometry (LC–MS)

[17] = limosilactobacillus reuteri cf48-3a, 12 h, 2 µM
Description: The drug is tested on Lactobacillus reuteri CF48-3A strain: BEI HM-102 for biotransformation. The drug concentrations were measured before and after a 12-h incubation by liquid-chromatography-coupled mass spectrometry (LC–MS)

[18] = The drug is tested on Bacteroides xylanisolvens strain: DSM18836 for biotransformation. The drug concentrations were measured before and after a 12-h incubation by liquid-chromatography-coupled mass spectrometry (LC–MS); details: 2 µM
[19] = parabacteroides johnsonii, 12 h, 2 µM
Description: The drug is tested on Parabacteroides johnsonii strain: DSM18315 for biotransformation. The drug concentrations were measured before and after a 12-h incubation by liquid-chromatography-coupled mass spectrometry (LC–MS)

Compound	Bacterial Biotransformation [1]	Bacterial Biotransformation [2]	Bacterial Biotransformation [3]	Bacterial Biotransformation [4]	Bacterial Biotransformation [5]	Bacterial Biotransformation [6]	Bacterial Biotransformation [7]	Bacterial Biotransformation [8]	Bacterial Biotransformation [9]	Bacterial Biotransformation [10]	Bacterial Biotransformation [11]	Bacterial Biotransformation [12]	Bacterial Biotransformation [13]	Bacterial Biotransformation [14]	Bacterial Biotransformation [15]	Bacterial Biotransformation [16]	Bacterial Biotransformation [17]	Bacterial Biotransformation [18]	Bacterial Biotransformation [19]
CC(C)NCC(O)COc1ccc(CCOCC2CC2)cc1 (centres undefined) [BETAXOLOL]	Compound NOT metabolized	Compound NOT metabolized	Compound NOT metabolized	Compound NOT metabolized	Compound NOT metabolized	Compound NOT metabolized	Compound NOT metabolized	Compound NOT metabolized	Compound NOT metabolized	Compound NOT metabolized	Compound NOT metabolized	Compound NOT metabolized	Compound NOT metabolized	Compound NOT metabolized	Compound NOT metabolized	Compound NOT metabolized	Compound NOT metabolized		
Clc1ccc(Cn2c(CN3CCCC3)nc3ccccc32)cc1 [CLEMIZOLE]	Compound NOT metabolized	Compound NOT metabolized		Compound NOT metabolized	Compound NOT metabolized	Compound NOT metabolized	Compound NOT metabolized	Compound NOT metabolized	Compound NOT metabolized	Compound NOT metabolized	Compound NOT metabolized	Compound NOT metabolized	Compound NOT metabolized	Compound NOT metabolized	Compound NOT metabolized	Compound NOT metabolized	Compound NOT metabolized	Compound NOT metabolized	Compound NOT metabolized
COc1cc2c(c(OC)c1OC)-c1ccc(OC)c(=O)cc1[C@@H](NC(C)=O)CC2 [COLCHICINE]	Compound NOT metabolized		Compound NOT metabolized	Compound metabolized	Compound NOT metabolized	Compound NOT metabolized	Compound NOT metabolized	Compound NOT metabolized	Compound metabolized	Compound NOT metabolized	Compound NOT metabolized	Compound NOT metabolized	Compound metabolized	Compound metabolized	Compound metabolized	Compound metabolized	Compound NOT metabolized		Compound metabolized
CCN(CC)CCNC(=O)c1ccc(NC(C)=O)cc1 [ACECAINIDE]	Compound NOT metabolized	Compound NOT metabolized	Compound NOT metabolized	Compound metabolized		Compound NOT metabolized	Compound NOT metabolized	Compound NOT metabolized	Compound NOT metabolized	Compound NOT metabolized	Compound NOT metabolized	Compound NOT metabolized		Compound NOT metabolized	Compound NOT metabolized			Compound NOT metabolized	Compound NOT metabolized
CCc1oc2ccccc2c1C(=O)c1cc(Br)c(O)c(Br)c1 [BENZBROMARONE]		Compound NOT metabolized	Compound NOT metabolized	Compound NOT metabolized	Compound NOT metabolized	Compound NOT metabolized	Compound NOT metabolized	Compound NOT metabolized	Compound NOT metabolized	Compound NOT metabolized	Compound NOT metabolized	Compound NOT metabolized	Compound NOT metabolized	Compound NOT metabolized	Compound NOT metabolized	Compound NOT metabolized		Compound NOT metabolized	Compound NOT metabolized
O=C1CN2Cc3c(ccc(Cl)c3Cl)N=C2N1 [ANAGRELIDE]	Compound NOT metabolized		Compound NOT metabolized	Compound NOT metabolized		Compound NOT metabolized	Compound NOT metabolized	Compound NOT metabolized	Compound NOT metabolized	Compound NOT metabolized	Compound NOT metabolized	Compound NOT metabolized	Compound NOT metabolized	Compound NOT metabolized	Compound NOT metabolized	Compound NOT metabolized		Compound NOT metabolized	Compound metabolized

Second part, the compound after the results:

Bacterial Biotransformation [1]	Bacterial Biotransformation [2]	Bacterial Biotransformation [3]	Bacterial Biotransformation [4]	Bacterial Biotransformation [5]	Bacterial Biotransformation [6]	Bacterial Biotransformation [7]	Bacterial Biotransformation [8]	Bacterial Biotransformation [9]	Bacterial Biotransformation [10]	Bacterial Biotransformation [11]	Bacterial Biotransformation [12]	Bacterial Biotransformation [13]	Bacterial Biotransformation [14]	Bacterial Biotransformation [15]	Bacterial Biotransformation [16]	Bacterial Biotransformation [17]	Bacterial Biotransformation [18]	Bacterial Biotransformation [19]	Compound
Compound NOT metabolized	Compound NOT metabolized	Compound NOT metabolized	Compound NOT metabolized	Compound NOT metabolized	Compound NOT metabolized	Compound NOT metabolized	Compound NOT metabolized	Compound NOT metabolized	Compound NOT metabolized	Compound NOT metabolized	Compound NOT metabolized	Compound NOT metabolized	Compound NOT metabolized	Compound NOT metabolized	Compound NOT metabolized	Compound NOT metabolized		Compound NOT metabolized	Br.CN(C)CCCC1(c2ccc(F)cc2)OCc2cc(C#N)ccc21 (centres undefined) [CITALOPRAM HYDROBROMIDE]
Compound NOT metabolized	Compound NOT metabolized	Compound NOT metabolized	Compound NOT metabolized	Compound NOT metabolized	Compound NOT metabolized	Compound NOT metabolized	Compound NOT metabolized	Compound NOT metabolized	Compound NOT metabolized	Compound NOT metabolized	Compound NOT metabolized	Compound NOT metabolized	Compound NOT metabolized	Compound NOT metabolized	Compound NOT metabolized		Compound NOT metabolized	Compound NOT metabolized	CC(C)NCC(O)COc1ccc(COCCOC(C)C)cc1.CC(C)NCC(O)COc1ccc(COCCOC(C)C)cc1.O=C(O)/C=C/C(=O)O (centres undefined) [BISOPROLOL FUMARATE]
	Compound NOT metabolized		Compound metabolized	Compound NOT metabolized	Compound NOT metabolized	Compound NOT metabolized	Compound NOT metabolized	Compound metabolized		Compound metabolized	Compound NOT metabolized	Compound metabolized	Compound NOT metabolized			Compound NOT metabolized	Compound metabolized		CCOC(=O)[C@H](CCc1ccccc1)N[C@@H](C)C(=O)N1[C@H](C(=O)O)C[C@H]2CCCC[C@@H]21 [TRANDOLAPRIL]

Reference: ChEMBL document CHEMBL5303573, “Mapping human microbiome drug metabolism by gut bacteria and their genes” (Nature, 2019)
